ChEMBL document CHEMBL1150701, “A direct bioautographic tlc assay for compounds possessing antibacterial activity” (1987)
Active and inactive are the calls of the source. The calls are words filed in the database; no cut-off is given here.

Key:
Bacillus subtilis [1] = test: Antibacterial activity against Bacillus subtilis ATCC 6633 after 48 hrs by silica gel plate-based INT-formazan method; assay type: functional
Escherichia coli [2] = test: Antibacterial activity against Escherichia coli ATCC 25922 after 48 hrs by silica gel plate-based INT-formazan method; assay type: functional
Escherichia coli [3] = test: Antibacterial activity against Escherichia coli ATCC 25922 at 5 ug after 48 hrs by silica gel plate-based INT-formazan method; assay type: functional, organism-based
Bacillus subtilis [4] = test: Antibacterial activity against Bacillus subtilis ATCC 6633 at 5 ug after 48 hrs by silica gel plate-based INT-formazan method; assay type: functional, organism-based

Row | Structure (SMILES) | MIC (Bacillus subtilis [1]) [µg] | MIC (Escherichia coli [2]) [µg] | Activity (Escherichia coli [3]) | Activity (Bacillus subtilis [4])
1 | OC[C@H]1O[C@@](CO)(O[C@H]2O[C@H](CO)[C@@H](O)[C@H](O)[C@H]2O)[C@@H](O)[C@@H]1O [SUCROSE] | >20 | >20 | – | –
2 | O=C(N[C@H](CO)[C@H](O)c1ccc([N+](=O)[O-])cc1)C(Cl)Cl [CHLORAMPHENICOL] | 0.01 | 0.02 | – | –
3 | CC1=CC(=O)[C@@H](O)[C@]2(C)[C@H]3[C@@]4(O)OC[C@@]35[C@@H](C[C@@H]12)OC(=O)C[C@H]5[C@@H](C)[C@H]4O | – | – | inactive | inactive
4 | CC[C@@]1(O)C(=O)OCc2c1cc1n(c2=O)Cc2cc3cc(O)ccc3nc2-1 | – | – | inactive | inactive
5 | O=c1c(O)c(-c2ccc(O)c(O)c2)oc2cc(O)cc(O)c12 [QUERCETIN] | 5 | 5 | – | –
6 | CC(=O)O[C@H]1C(=O)O[C@@H]2C[C@H]3C(C)=CC(=O)[C@@H](O)[C@]3(C)[C@H]3[C@]4(O)OC[C@]32[C@@H]1[C@@H](C)[C@H]4O | – | – | inactive | inactive
7 | CC1=CC(=O)[C@@H](O)[C@]2(C)[C@H]3[C@]4(O)OC[C@]35[C@H]([C@@H](C)[C@H]4O)[C@@H](O)C(=O)O[C@@H]5C[C@@H]12 | – | – | inactive | inactive
8 | CC[C@@]1(O)C(=O)OCc2c1cc1n(c2=O)Cc2cc3c(OC)cccc3nc2-1 | – | – | inactive | inactive
9 | CC1(C)S[C@@H]2[C@H](NC(=O)COc3ccccc3)C(=O)N2[C@H]1C(=O)O [PENICILLIN V] | 0.005 | >2 | – | –
10 | CCCCCCCCCCCCCCCC(=O)O [PALMITIC ACID] | >20 | >20 | – | –
11 | COC(=O)[C@]12OC[C@]34[C@H]([C@@H](O)[C@@H]1O)[C@@]1(C)[C@H](O)C(=O)C=C(C)[C@@H]1C[C@H]3OC(=O)[C@H](OC(=O)CC(C)C)[C@@H]24 | – | – | inactive | inactive
12 | COc1cc([C@@H]2c3cc4c(cc3C[C@H]3COC(=O)[C@@H]32)OCO4)cc(OC)c1O | – | – | inactive | inactive
13 | COc1cc([C@@H]2c3cc4c(c(O)c3C[C@H]3COC(=O)[C@@H]32)OCO4)cc(OC)c1O | – | – | Active | Active
14 | COc1cc([C@@H]2c3cc4c(cc3[C@H](O)[C@H]3COC(=O)[C@H]23)OCO4)cc(OC)c1OC | – | – | Active | Active
15 | CC[C@@]1(O)C(=O)OCc2c1cc1n(c2=O)Cc2cc3ccccc3nc2-1 | – | – | inactive | inactive
16 | COc1cc([C@@H]2c3cc4c(c(O)c3C[C@H]3COC(=O)[C@@H]32)OCO4)cc(OC)c1OC | – | – | inactive | inactive
17 | CC[C@H](CC[C@@H](C)[C@H]1CC[C@H]2[C@@H]3CC=C4C[C@@H](O)CC[C@]4(C)[C@H]3CC[C@]12C)C(C)C [BETA-SITOSTEROL] | >20 | >20 | – | –
18 | CC[C@H](/C=C/[C@@H](C)[C@H]1CC[C@H]2[C@@H]3CC=C4C[C@@H](O)CC[C@]4(C)[C@H]3CC[C@]12C)C(C)C [STIGMASTEROL] | >20 | >20 | – | –
19 | O=C(O)/C=C/c1ccc(O)cc1 [COUMARIC ACID] | 2.5 | 5 | – | –
